# Columns and labels:
# [1] = target: human orexin-2 receptor (Homo sapiens (Human), UniProt O43614); experiment: FLIPR Ca2+ flux assay, hOX2R; assay type: cell-based; settings: CHO cells expressing the human orexin-2 receptor; agonist 70 pM Ala-6,12 orexin-A
# Experimental: The utility of the compounds in accordance with the present invention as orexin receptor OX1R and/or OX2R antagonists may be readily determined without undue experimentation by methodology well known in the art, including the “FLIPR Ca^2+ Flux Assay” (Okumura et al., Biochem. Biophys. Res. Comm. 280:976-981, 2001). In a typical experiment the OX1 and OX2 receptor antagonistic activity of the compounds of the present invention was determined in accordance with the following experimental method. For intracellular calcium measurements, Chinese hamster ovary (CHO) cells expressing the rat orexin-1 receptor or the human orexin-2 receptor, are grown in Iscove's modified DMEM containing 2 mM L-glutamine, […], 1% hypoxanthine-thymidine supplement, 100 U/ml penicillin, 100 μg/ml streptomycin and 10% heat-inactivated fetal calf serum (FCS). The cells are seeded at 20,000 cells/well into Becton-Dickinson black 384-well clear bottom sterile plates coated with poly-D-lysine. All reagents were from GIBCO-Invitrogen Corp. The seeded plates are incubated overnight at 37° C. and 5% CO2. Ala-6,12 human orexin-A as the agonist is prepared as a 1 mM stock solution in 1% bovine serum albumin (BSA) and diluted in assay buffer (HBSS containing 20 mM HEPES, 0.1% BSA and 2.5 mM probenecid, pH7.4) for use in the assay at a final concentration of 70pM. Test compounds are prepared as 10 mM stock solution in DMSO, then diluted in 384-well plates, first in DMSO, then assay buffer. On the day of the assay, cells are washed 3 times with 100 μl assay buffer and then incubated for 60 min (37° C., 5% CO2) in 60 μl assay buffer containing 1 μM Fluo-4AM ester, 0.02% pluronic acid, and 1% BSA. The dye loading solution is then aspirated and cells are washed 3 times with 100 μl assay buffer. 30 μl of that same buffer is left in each well. Within the Fluorescent Imaging Plate Reader (FLIPR, Molecular Devices), test compounds are added to the plate in a volume of 25 μl, incubated for 5 min and finally 25 μl of agonist is added. Fluorescence is measured for each well at 1 second intervals for 5 minutes and the height of each fluorescence peak is compared to the height of the fluorescence peak induced by 70 pM Ala-6,12 orexin-A with buffer in place of antagonist. For each antagonist, IC50 value (the concentration of compound needed to inhibit 50% of the agonist response) is determined. Alternatively, compound potency can be assessed by a radioligand binding assay (described in Bergman et. al. Bioorg. Med. Chem. Lett. 2008, 18, 1425-1430) in which the inhibition constant (Ki) is determined in membranes prepared from CHO cells expressing either the OX1 or OX2 receptor. The intrinsic orexin receptor antagonist activity of a compound which may be used in the present invention may be determined by these assays.
# [2] = target: hOX1R (orexin-1 receptor) (Homo sapiens, UniProt O43613); experiment: FLIPR Ca2+ flux assay, hOX1R; assay type: cell-based; settings: CHO cells expressing the orexin-1 receptor (head: hOX1R; method: rat); agonist 70 pM Ala-6,12 orexin-A
# Sequence of human orexin-2 receptor (O43614 whole entry): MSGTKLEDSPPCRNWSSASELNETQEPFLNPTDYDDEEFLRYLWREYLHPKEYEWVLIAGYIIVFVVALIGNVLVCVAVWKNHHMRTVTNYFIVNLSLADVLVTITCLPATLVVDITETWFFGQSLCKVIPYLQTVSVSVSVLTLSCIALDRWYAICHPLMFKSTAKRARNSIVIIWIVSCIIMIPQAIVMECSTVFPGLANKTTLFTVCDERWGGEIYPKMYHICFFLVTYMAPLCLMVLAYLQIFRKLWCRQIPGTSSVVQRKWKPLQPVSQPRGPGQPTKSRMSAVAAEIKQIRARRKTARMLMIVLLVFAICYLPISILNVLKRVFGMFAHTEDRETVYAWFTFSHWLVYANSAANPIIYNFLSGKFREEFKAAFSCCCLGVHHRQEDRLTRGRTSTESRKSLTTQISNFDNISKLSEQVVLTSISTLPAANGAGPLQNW
Compound,IC50 [1],IC50 [2]
"CCOc1ccnc(N[C@@H]2C[C@@H](C)N(C(=O)c3ccccc3-n3nccn3)C2)c1C(=O)OC [Example 34, Methyl 2-(((3R,5R)-1-(2-(2H-1,2,3-triazol-2-yl)benzoyl)-5-methylpyrrolidin-3-yl)amino)-4-ethoxynicotinate]",0.0662 µM,> 10 µM
"C[C@@H]1C[C@@H](N(C)c2cc(Br)ccn2)CN1C(=O)c1ccccc1-n1nccn1 [Example 35, (2-(2H-1,2,3-Triazol-2-yl)phenyl)((2R,4R)-4-((4-bromopyridin-2-yl)(methyl)amino)-2-methylpyrrolidin-1-yl)methanone]",0.136 µM,2.25 µM
"Cc1c(C#N)ccnc1N[C@@H]1C[C@@H](C)N(C(=O)c2ccccc2-n2nccn2)C1 [Example 36, 2-(((3R,5R)-1-(2-(2H-1,2,3-Triazol-2-yl)benzoyl)-5-methylpyrrolidin-3-yl)amino)-3-methylisonicotinonitrile]",0.0236 µM,3.35 µM
"Cc1c(C#N)ccnc1N(C)[C@@H]1C[C@@H](C)N(C(=O)c2ccccc2-n2nccn2)C1 [Example 37, 2-(((3R,5R)-1-(2-(2H-1,2,3-Triazol-2-yl)benzoyl)-5-methylpyrrolidin-3-yl)(methyl)amino)-3-methylisonicotinonitrile]",3.21 µM,> 10 µM
"COC(=O)c1c(C#N)ccnc1N[C@@H]1C[C@@H](C)N(C(=O)c2ccccc2-n2nccn2)C1 [Example 38, Methyl 2-(((3R,5R)-1-(2-(2H-1,2,3-triazol-2-yl)benzoyl)-5-methylpyrrolidin-3-yl)amino)-4-cyanonicotinate]",0.0146 µM,1.55 µM
"COc1c(C#N)ccnc1N[C@@H]1C[C@@H](C)N(C(=O)c2ccccc2-n2nccn2)C1 [Example 39, 2-(((3R,5R)-1-(2-(2H-1,2,3-Triazol-2-yl)benzoyl)-5-methylpyrrolidin-3-yl)amino)-3-methoxyisonicotinonitrile]",0.0408 µM,> 10 µM
"COc1cccnc1N[C@@H]1C[C@@H](C)N(C(=O)c2ccccc2-c2noc(C)n2)C1 [Example 42, ((2R,4R)-4-((3-Methoxypyridin-2-yl)amino)-2-methylpyrrolidin-1-yl)(2-(5-methyl-1,2,4-oxadiazol-3-yl)phenyl)methanone]",0.5 µM,10 µM
"COc1cccnc1N[C@@H]1C[C@@H](C)N(C(=O)c2nccnc2-n2cccn2)C1 [Example 43, (3-(1H-Pyrazol-1-yl)pyrazin-2-yl)((2R,4R)-4-((3-methoxypyridin-2-yl)amino)-2-methylpyrrolidin-1-yl)methanone]",1.5 µM,10 µM
"COc1cccnc1N[C@@H]1C[C@@H](C)N(C(=O)c2nccnc2-c2ccccn2)C1 [Example 44, ((2R,4R)-4-((3-Methoxypyridin-2-yl)amino)-2-methylpyrrolidin-1-yl)(3-(pyridin-2-yl)pyrazin-2-yl)methanone]",2.37 µM,10 µM

# Reference: patent publication US10150751B2 (Merck Sharp & Dohme Corp., priority 2014, dated 2018)
